Results reported in patent publication US12617783B2, “Heterocyclic GLP-1R agonists” (BIOMEA FUSION, INC., priority 2024, dated 2026).

molecular target: T1, human GLP-1R (Homo sapiens, UniProt P43220); experiment: GLP-1R cAMP assay (Example B1a, HTRF, 30 min at room temperature); format: cell-based; details: Table 1c, comparative compound; read-out: EC50
T1 construct: host or cells: HEK293
How it was run: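 Competitive HTRF read-out of cAMP after 30 min room-temperature stimulation, BETP absent, of human GLP-1R-HEK293 cells (1,000/well) in HEPES buffer with 500 μM IBMX and 0.1% BSA. Activation normalised to GLP-1(7-37) positive control. EC50 from 4-parameter non-linear regression.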

T1 sequence (P43220 24-463): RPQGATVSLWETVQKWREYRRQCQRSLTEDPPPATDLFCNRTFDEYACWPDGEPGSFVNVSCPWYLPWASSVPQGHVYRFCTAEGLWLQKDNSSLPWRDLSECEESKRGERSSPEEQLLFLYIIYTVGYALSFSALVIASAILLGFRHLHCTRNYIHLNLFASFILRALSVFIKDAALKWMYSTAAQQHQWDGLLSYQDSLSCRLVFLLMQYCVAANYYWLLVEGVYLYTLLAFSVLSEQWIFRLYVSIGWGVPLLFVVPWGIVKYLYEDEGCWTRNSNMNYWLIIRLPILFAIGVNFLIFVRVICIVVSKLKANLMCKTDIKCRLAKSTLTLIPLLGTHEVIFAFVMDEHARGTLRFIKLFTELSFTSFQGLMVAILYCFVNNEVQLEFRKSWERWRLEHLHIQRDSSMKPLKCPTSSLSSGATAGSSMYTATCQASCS

Work on `CCP(=O)(CC)c1ccc(-n2ccn(-c3c4c(nn3-c3cc(C)c(F)c(C)c3)CCN(C(=O)c3cc5cc(C6CCOCC6)ccc5n3[C@@]3(c5noc(=O)[nH]5)C[C@@H]3C)[C@H]4C)c2=O)cc1NC` [Compound 405] yielded an EC50 of 11.4 nM.

same assay, conditions: cAMP accumulation in HEK293 expressing human GLP-1R, no BETP, 30 min room temperature (Method B1a, compounds ID 1-609), Table 1; read-out: EC50

Compared with `Cc1cc(-n2nc3c(c2-n2ccn(-c4ccc5c(cnn5C)c4F)c2=O)[C@@H]2CC[C@H](C3)N2C(=O)c2cc3sc([C@@H]4CCOC(C)(C)C4)nc3n2[C@@]2(c3noc(=O)[nH]3)C[C@@H]2C)cc(C)c1F` [Compound 307, 3-[(1S,2S)-1-[2-[(4R)-2,2-dimethyltetrahydropyran-4-yl]-5-[(1S,8R)-4-(4-fluoro-3,5-dimethyl-phenyl)-3-[3-(4-fluoro-1-methyl-indazol-5-yl)-2-oxo-imidazol-1-yl]-4,5,11-triazatricyclo[6.2.1.02,6]undeca-2,5-diene-11-carbonyl]pyrrolo[2,3-d]thiazol-4-yl]-2-methyl-cyclopropyl]-4H-1,2,4-oxadiazol-5-one], `Cc1cc(-n2nc3c(c2-n2ccn(-c4ccc5c(cnn5C)c4F)c2=O)[C@@H]2CC[C@H](C3)N2C(=O)c2cc3cc(C4CCOC(C)(C)C4)cnc3n2[C@@]2(c3noc(=O)[nH]3)C[C@@H]2C)cc(C)c1F` (stereo partly drawn) [Compound 311, 3-((1S,2S)-1-(5-(2,2-dimethyltetrahydro-2H-pyran-4-yl)-2-((4S,7R)-3-(3-(4-fluoro-1-methyl-1H-indazol-5-yl)-2-oxo-2,3-dihydro-1H-imidazol-1-yl)-2-(4-fluoro-3,5-dimethylphenyl)-2,4,5,6,7,8-hexahydro-4,7-epiminocyclohepta [c]pyrazole-9-carbonyl)-1H-pyrrolo[2,3-b]pyridin-1-yl)-2-methylcyclopropyl)-1,2,4-oxadiazol-5(4H)-one] is lower in EC50: over 10000 nM for the first, 57.3 nM for the second. The second is the more potent here.

`Cc1cc(-n2nc3c(c2-n2ccn(-c4ccc5c(cnn5C)c4Cl)c2=O)[C@@H]2CC[C@H](C3)N2C(=O)c2cc3cc([C@H]4CCOC(C)(C)C4)ccc3n2[C@@]2(c3noc(=O)[nH]3)C[C@@H]2C)cc(C)c1F` [Compound 308, 3-((1S,2S)-1-(2-((4S,7R)-3-(3-(4-chloro-1-methyl-1H-indazol-5-yl)-2-oxo-2,3-dihydro-1H-imidazol-1-yl)-2-(4-fluoro-3,5-dimethylphenyl)-2,4,5,6,7,8-hexahydro-4,7-epiminocyclohepta [c]pyrazole-9-carbonyl)-5-((S)-2,2-dimethyltetrahydro-2H-pyran-4-yl)-1H-indol-1-yl)-2-methylcyclopropyl)-1,2,4-oxadiazol-5(4H)-one] and `Cc1cc(-n2nc3c(c2-n2ccn(-c4ccc5c(cnn5C(F)F)c4F)c2=O)[C@@H]2CC[C@H](C3)N2C(=O)c2cc3cc([C@H]4CCOC(C)(C)C4)ccc3n2[C@@]2(c3noc(=O)[nH]3)C[C@@H]2C)cc(C)c1F` [Compound 310, 3-((1S,2S)-1-(2-((4S,7R)-3-(3-(1-(difluoromethyl)-4-fluoro-1H-indazol-5-yl)-2-oxo-2,3-dihydro-1H-imidazol-1-yl)-2-(4-fluoro-3,5-dimethylphenyl)-2,4,5,6,7,8-hexahydro-4,7-epiminocyclohepta [c]pyrazole-9-carbonyl)-5-((S)-2,2-dimethyltetrahydro-2H-pyran-4-yl)-1H-indol-1-yl)-2-methylcyclopropyl)-1,2,4-oxadiazol-5(4H)-one] are within 1.5-fold of each other in EC50: 197 nM for the first, 182 nM for the second.

Compared with `Cc1cc(-n2nc3c(c2-n2ccn(-c4ccc5nn(C(F)F)cc5c4F)c2=O)[C@@H]2CC[C@H](C3)N2C(=O)c2cc3cc([C@H]4CCOC(C)(C)C4)ccc3n2[C@@]2(c3noc(=O)[nH]3)C[C@@H]2C)cc(C)c1F` [Compound 309, 3-((1S,2S)-1-(2-((4S,7R)-3-(3-(2-(difluoromethyl)-4-fluoro-2H-indazol-5-yl)-2-oxo-2,3-dihydro-1H-imidazol-1-yl)-2-(4-fluoro-3,5-dimethylphenyl)-2,4,5,6,7,8-hexahydro-4,7-epiminocyclohepta [c]pyrazole-9-carbonyl)-5-((S)-2,2-dimethyltetrahydro-2H-pyran-4-yl)-1H-indol-1-yl)-2-methylcyclopropyl)-1,2,4-oxadiazol-5 (4H)-one], `Cc1cc(-n2nc3c(c2-n2ccn(-c4ccc5[nH]ncc5c4F)c2=O)[C@@H]2CC[C@H](C3)N2C(=O)c2cc3cc([C@H]4CCOC(C)(C)C4)ccc3n2[C@@]2(c3noc(=O)[nH]3)C[C@@H]2C)cc(C)c1F` [Compound 406, 3-((1S,2S)-1-(5-((S)-2,2-dimethyltetrahydro-2H-pyran-4-yl)-2-((4S,7R)-3-(3-(4-fluoro-1H-indazol-5-yl)-2-oxo-2,3-dihydro-1H-imidazol-1-yl)-2-(4-fluoro-3,5-dimethylphenyl)-2,4,5,6,7,8-hexahydro-4,7-epiminocyclohepta [c]pyrazole-9-carbonyl)-1H-indol-1-yl)-2-methylcyclopropyl)-1,2,4-oxadiazol-5 (4H)-one] is 39-fold lower in EC50: 721 nM for the first, 18.4 nM for the second.

Going from `Cc1cc(-n2nc3c(c2-n2ccn(-c4ccc5c(cnn5C)c4F)c2=O)[C@@H]2CC[C@H](C3)N2C(=O)c2cc3cc([C@@H]4CCOC(C)(C)C4)cnc3n2[C@@]2(c3noc(=O)[nH]3)C[C@@H]2C)cc(C)c1F` [Compound 312, 3-((1S,2S)-1-(5-((R)-2,2-dimethyltetrahydro-2H-pyran-4-yl)-2-((4S,7R)-3-(3-(4-fluoro-1-methyl-1H-indazol-5-yl)-2-oxo-2,3-dihydro-1H-imidazol-1-yl)-2-(4-fluoro-3,5-dimethylphenyl)-2,4,5,6,7,8-hexahydro-4,7-epiminocyclohepta [c]pyrazole-9-carbonyl)-1H-pyrrolo[2,3-b]pyridin-1-yl)-2-methylcyclopropyl)-1,2,4-oxadiazol-5(4H)-one] to `Cc1cc(-n2nc3c(c2-n2ccn(-c4ccc5c(cnn5C)c4F)c2=O)[C@@H]2CC[C@H](C3)N2C(=O)c2cc3cc([C@H]4CCOC(C)(C)C4)cnc3n2[C@@]2(c3noc(=O)[nH]3)C[C@@H]2C)cc(C)c1F` [Compound 313, 3-((1S,2S)-1-(5-((S)-2,2-dimethyltetrahydro-2H-pyran-4-yl)-2-((4S,7R)-3-(3-(4-fluoro-1-methyl-1H-indazol-5-yl)-2-oxo-2,3-dihydro-1H-imidazol-1-yl)-2-(4-fluoro-3,5-dimethylphenyl)-2,4,5,6,7,8-hexahydro-4,7-epiminocyclohepta [c]pyrazole-9-carbonyl)-1H-pyrrolo[2,3-b]pyridin-1-yl)-2-methylcyclopropyl)-1,2,4-oxadiazol-5 (4H)-one], the EC50 falls from 1340 nM to 18.7 nM (72-fold).

First: Cc1cc(-n2nc3c(c2-n2ccn(-c4ccc5c(cnn5C)c4F)c2=O)[C@@H]2CC[C@H](C3)N2C(=O)c2cc3ccc([C@H]4CCOC(C)(C)C4)cc3nc2[C@@]2(c3noc(=O)[nH]3)C[C@@H]2C)cc(C)c1F [Compound 318, 3-[(1R,2S)-1-[7-[(4S)-2,2-dimethyltetrahydropyran-4-yl]-3-[(1S,8R)-4-(4-fluoro-3,5-dimethyl-phenyl)-3-[3-(4-fluoro-1-methyl-indazol-5-yl)-2-oxo-imidazol-1-yl]-4,5,11-triazatricyclo[6.2.1.02,6]undeca-2,5-diene-11-carbonyl]-2-quinolyl]-2-methyl-cyclopropyl]-4H-1,2,4-oxadiazol-5-one]
Second: Cc1cc(-n2nc3c(c2-n2ccn(-c4ccc5c(cnn5C)c4F)c2=O)[C@@H]2CC[C@H](C3)N2C(=O)c2cc3ccc([C@@H]4CCOC(C)(C)C4)cc3nc2[C@@]2(c3noc(=O)[nH]3)C[C@@H]2C)cc(C)c1F [Compound 319, 3-[(1R,2S)-1-[7-[(4R)-2,2-dimethyltetrahydropyran-4-yl]-3-[(1S,8R)-4-(4-fluoro-3,5-dimethyl-phenyl)-3-[3-(4-fluoro-1-methyl-indazol-5-yl)-2-oxo-imidazol-1-yl]-4,5,11-triazatricyclo[6.2.1.02,6]undeca-2,5-diene-11-carbonyl]-2-quinolyl]-2-methyl-cyclopropyl]-4H-1,2,4-oxadiazol-5-one]
The EC50 of the first is 1.9-fold higher: 870 nM for the first, 469 nM for the second.

Compared with `Cc1cc(-n2nc3c(c2-n2ccn(-c4ccc5c(cnn5C)c4)c2=O)[C@@H]2CC[C@H](C3)N2C(=O)c2cc3cc([C@H]4CCOC5(CC5)C4)ccc3n2[C@@]2(c3noc(=O)[nH]3)C[C@@H]2C)cc(C)c1F` [Compound 323, 3-[(1S,2S)-1-[2-[(1S,8R)-4-(4-fluoro-3,5-dimethyl-phenyl)-3-[3-(1-methylindazol-5-yl)-2-oxo-imidazol-1-yl]-4,5,11-triazatricyclo[6.2.1.02,6]undeca-2,5-diene-11-carbonyl]-5-[(7S)-4-oxaspiro[2.5]octan-7-yl]indol-1-yl]-2-methyl-cyclopropyl]-4H-1,2,4-oxadiazol-5-one], `Cc1cc(-n2nc3c(c2-n2ccn(-c4ccc5cnncc5c4F)c2=O)[C@@H]2CC[C@H](C3)N2C(=O)c2cc3cc([C@H]4CCOC(C)(C)C4)ccc3n2[C@@]2(c3noc(=O)[nH]3)C[C@@H]2C)cc(C)c1F` [Compound 410, 3-((1S,2S)-1-(5-((S)-2,2-dimethyltetrahydro-2H-pyran-4-yl)-2-((4S,7R)-2-(4-fluoro-3,5-dimethylphenyl)-3-(3-(5-fluorophthalazin-6-yl)-2-oxo-2,3-dihydro-1H-imidazol-1-yl)-2,4,5,6,7,8-hexahydro-4,7-epiminocyclohepta [c]pyrazole-9-carbonyl)-1H-indol-1-yl)-2-methylcyclopropyl)-1,2,4-oxadiazol-5 (4H)-one] is 5.4-fold lower in EC50: 79.3 nM for the first, 14.7 nM for the second.

`Cc1cc(-n2nc3c(c2-n2ccn(-c4ccc5c(cnn5C)c4F)c2=O)[C@@H]2CC[C@H](C3)N2C(=O)c2cc3cn(C4CCOC(C)(C)C4)c(=O)cc3n2[C@@]2(c3noc(=O)[nH]3)C[C@@H]2C)cc(C)c1F` (stereo partly drawn) [Compound 324, 3-[(1S,2S)-1-[5-(2,2-dimethyltetrahydropyran-4-yl)-2-[(1S,8R)-4-(4-fluoro-3,5-dimethyl-phenyl)-3-[3-(4-fluoro-1-methyl-indazol-5-yl)-2-oxo-imidazol-1-yl]-4,5,11-triazatricyclo[6.2.1.02,6]undeca-2,5-diene-11-carbonyl]-6-oxo-pyrrolo[3,2-c]pyridin-1-yl]-2-methyl-cyclopropyl]-4H-1,2,4-oxadiazol-5-one] gave an EC50 of 264 nM.
